Measured values as given in patent publication US20250049891A1, “NOVEL PEPTIDE DERIVATIVE DERIVED FROM ADIPONECTIN AND USE THEREOF” (SEOUL NATIONAL UNIVERSITY HOSPITAL, priority 2021, published 2025).
Values after ≈ are worked out from the molar mass of the structure shown. Numbered stars: 1 amine (or outer) side, 2 acyl side, 3 side chain; on linkers, the order of the positions; unused ones are H or OH. Bridge positions count the residues as written; N and C are the ends. Square brackets hold non-standard residues; d marks the D form. Peptide text beside a SMILES is read from it. ξ: configuration not given here. ξhAlg = O=C(C(CCC=[*:3])N[*:1])[*:2]; AllylGly = C=CC[CH](N)C(=O)O

Tests used:
AMPK phosphorylation = AMPK phosphorylation activity in mouse adipocytes (Western blot); format: cell-based; details: 3T3-L1, 10 μM, 24 hours; for AMPK phosphorylation activity (fold change): APN5 = 1.0
Protocol: There were confirmed effects of the peptide derivatives of the present disclosure on the expression and receptor activity of adiponectin in mouse adipocytes as a main adiponectin production site. A mouse adipocyte cell line 3T3-L1 was treated with each of the peptide derivatives of the present disclosure at a concentration of 10 μM and cultured for 24 hours, and then cells were obtained. Thereafter, the proteins were extracted and the effect on AMPK phosphorylation, which was responsible for the main downstream signaling of adiponectin, was confirmed by Western blot.

adiponectin receptor 1 = biological target: T1, adiponectin receptor 1 (Mus musculus, UniProt Q91VH1); test: AMPK phosphorylation activity after knockdown of adiponectin receptor 1 (siRNA, Western blot); format: cell-based; details: 3T3-L1, adiponectin receptor 1 siRNA, 10 μM, 24 hours
T1 construct: a mouse adipocyte cell line 3T3-L1 was treated with siRNA of an adiponectin receptor 1 to be knocked down; endogenous in cells; host or cells: 3T3-L1 mouse adipocyte cell line
T1 sequence (Q91VH1 1-375): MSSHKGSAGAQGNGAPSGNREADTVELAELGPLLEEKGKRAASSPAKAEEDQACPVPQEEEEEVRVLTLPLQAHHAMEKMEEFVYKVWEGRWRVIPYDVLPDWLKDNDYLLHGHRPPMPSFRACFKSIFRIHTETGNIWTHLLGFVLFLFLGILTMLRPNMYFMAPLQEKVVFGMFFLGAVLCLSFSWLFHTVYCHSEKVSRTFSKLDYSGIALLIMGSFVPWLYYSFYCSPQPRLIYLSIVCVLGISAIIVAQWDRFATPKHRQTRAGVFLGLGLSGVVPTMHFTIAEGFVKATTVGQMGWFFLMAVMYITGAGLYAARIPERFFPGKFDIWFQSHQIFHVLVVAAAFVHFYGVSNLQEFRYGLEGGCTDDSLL
Protocol: In order to verify whether the peptide derivative of the present disclosure bound to an adiponectin receptor 1, a mouse adipocyte cell line 3T3-L1 was treated with siRNA of an adiponectin receptor 1 to be knocked down, and each of the peptide derivatives of the present disclosure was treated at 10 μM and cultured for 24 hours, and then cells were obtained. Thereafter, the proteins were extracted and it was confirmed by Western blot whether AMPK phosphorylation activity, which had been increased by the peptide derivatives, was lost.

physchem = details: pH 7.4, aqueous buffer, kinetic from dmso stock
Protocol: A PRISMA HT solution was diluted in distilled water at a ratio of 1:40, and then used as a test buffer by adjusting the pH to 7.4.
10 mL of the prepared test material was diluted in 190 μL of isopropyl alcohol and prepared. In addition, 75 mL of the test solution and 70 mL of isopropyl alcohol were mixed to be used as a blank sample, and 5 mL of the test material diluted in isopropyl alcohol was added to the blank sample. After the diluted sample was mixed, the absorbance was measured and used as an initial test value. […] Thereafter, the precipitate was removed from the sample using a filter plate, 74 mL of the filtered sample was added with 75 mL of isopropyl alcohol, and then the absorbance was measured and used as the sample value.
The solubility value of the test material was analyzed using a msol Explore (Solubility explorer program) after measuring the absorbance of each sample through a microplate reader. The average and standard deviation of the experimental values (n=3) repeated three times were calculated using the Excel program.

[1] = Metabolic stability test, rat liver microsomes; format: in vitro ADME; details: pH 7.4, rat liver microsomes 0.5 mg/ml, NADPH, 37° C., 30 m
Protocol: (§2) Three types of liver microsomes (Human, Rat, Mouse, 0.5 mg/ml), a 0.1 M phosphate buffer solution (pH 7.4), and the peptide derivative of the present disclosure were added at a concentration of 1 μM and pre-cultured at 37° C. for 5 minutes, and then added with an NADPH Regeneration system solution and cultured at 37° C. for 30 minutes. Thereafter, to terminate the reaction, the mixture was added with an acetonitrile solution containing an internal standard material (chlorpropamide), centrifuged for 5 minutes (14,000 rpm, 4° C.), and then the supernatant was injected into the LC-MS/MS system to analyze a substrate drug, and thus metabolic stability was evaluated.
(§3) The amount of substrate remaining through the reaction was analyzed by LC-MS/MS using Agilent 1290 infinity series pump system (Agilent, USA) and Triple Quad 5500 LC-MS/MS system (Applied Biosystems, USA). The HPLC column was used with a Kinetex C18 column (2.1×100 mm, 1.7 μm particle size; Phenomenex, USA), and the mobile phase was distilled water (A) containing 0.1% formic acid and acetonitrile (B) containing 0.1% formic acid. TurboSpray Ionization was used as an ion source for MS/MS, and a triple quadruple type was used as a mass spectrometer. The produced metabolites were quantified using a multiple reaction monitoring (MRM) quantitative mode, and data analysis was performed using Analyst software (version 1.6.1).

[2] = Metabolic stability test, mouse liver microsomes; format: in vitro ADME; details: pH 7.4, mouse liver microsomes 0.5 mg/ml, NADPH, 37° C., 30 m
Protocol: as §2, §3

CYP1A2 = biological target: T2, CYP1A2 (Homo sapiens, UniProt P05177); details: microsomes, 10 µM
T2 sequence (P05177 1-516): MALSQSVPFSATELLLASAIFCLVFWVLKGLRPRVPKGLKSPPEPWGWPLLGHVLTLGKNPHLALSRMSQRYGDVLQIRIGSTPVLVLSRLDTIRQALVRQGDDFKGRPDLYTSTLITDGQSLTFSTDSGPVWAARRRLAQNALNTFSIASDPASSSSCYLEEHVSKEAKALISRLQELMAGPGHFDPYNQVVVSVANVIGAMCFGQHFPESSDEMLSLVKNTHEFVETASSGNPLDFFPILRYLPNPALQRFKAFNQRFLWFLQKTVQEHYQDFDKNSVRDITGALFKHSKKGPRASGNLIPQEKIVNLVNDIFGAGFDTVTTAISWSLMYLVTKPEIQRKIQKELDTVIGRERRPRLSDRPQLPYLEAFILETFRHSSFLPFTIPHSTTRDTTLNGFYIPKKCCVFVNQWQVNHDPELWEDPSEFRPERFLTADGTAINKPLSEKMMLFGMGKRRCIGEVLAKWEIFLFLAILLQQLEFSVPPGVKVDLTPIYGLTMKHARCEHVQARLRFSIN
Protocol: (§1) Metabolites of each CYP isoenzyme indicator drug produced through the reaction were analyzed by LC-MS/MS using the Shimadzu Nexera XR system and TSQ vantage (Thermo).

CYP2C19 = CYP2C19 (Homo sapiens, UniProt P33261); details: microsomes, 10 µM
Protocol: as §1

CYP2C9 = CYP2C9 (Homo sapiens, UniProt P11712); details: microsomes, 10 µM
Protocol: as §1

CYP2D6 = CYP2D6 (Homo sapiens, UniProt P10635); details: microsomes, 10 µM
Protocol: as §1

CYP3A4 = CYP3A4 (Homo sapiens, UniProt P08684); details: microsomes, 10 µM
Protocol: as §1

in vitro [3] = details: human, plasma
Protocol: (§4) The peptide derivative of the present disclosure was added at a concentration of 1 μM to two types of plasma (human, rat), placed in each tube, and then cultured at 37° C. for time of 0, 30, 60, 120, and 240 minutes. The tube containing plasma was taken out every time, added with an acetonitrile solution containing an internal standard material (chlorpropamide), vortexed for 5 minutes, and centrifuged for 5 minutes (14,000 rpm, 4° C.). Thereafter, the plasma stability of the peptide derivative was evaluated by injecting the supernatant into an LC-MS/MS system and analyzing the drug at each time period. At this time, Procaine and Enalapril were used as reference materials for accuracy during a general plasma stability test.
(§5) After the reaction, the amount of drug remaining in each tube was analyzed by LC-MS/MS using Shimadzu Nexera XR system and TSQ vantage (Thermo). The HPLC column was used with a Luna C18 column (2.0×50 mm, 3 μm particle size; Phenomenex, US), and the mobile phase was distilled water (A) containing 0.1% formic acid and acetonitrile (B) containing 0.1% formic acid. Data analysis was performed using Xcalibur (version 1.6.1). In the result analysis, the plasma stability of each peptide derivative was expressed as % remaining for each time period for the sample without culture.

in vitro [4] = details: rat, plasma
Protocol: as §4, §5

in vitro [5] = details: human, microsomes, pH 7.4
Protocol: as §2
The HPLC column was used with a Kinetex C18 column (2.1×100 mm, 1.7 μm particle size; Phenomenex, USA), and the mobile phase was distilled water (A) containing 0.1% formic acid and acetonitrile (B) containing 0.1% formic acid. TurboSpray Ionization was used as an ion source for MS/MS, and a triple quadruple type was used as a mass spectrometer. The produced metabolites were quantified using a multiple reaction monitoring (MRM) quantitative mode, and data analysis was performed using Analyst software (version 1.6.1).

[6] = Plasma stability test, rat plasma; details: rat plasma, 1 μM, 37° C.
Protocol: as §4, §5

[7] = Plasma stability test, human plasma; details: human plasma, 37° C.
Protocol: as §4, §5

CYP2D6, sequence (P10635 whole entry): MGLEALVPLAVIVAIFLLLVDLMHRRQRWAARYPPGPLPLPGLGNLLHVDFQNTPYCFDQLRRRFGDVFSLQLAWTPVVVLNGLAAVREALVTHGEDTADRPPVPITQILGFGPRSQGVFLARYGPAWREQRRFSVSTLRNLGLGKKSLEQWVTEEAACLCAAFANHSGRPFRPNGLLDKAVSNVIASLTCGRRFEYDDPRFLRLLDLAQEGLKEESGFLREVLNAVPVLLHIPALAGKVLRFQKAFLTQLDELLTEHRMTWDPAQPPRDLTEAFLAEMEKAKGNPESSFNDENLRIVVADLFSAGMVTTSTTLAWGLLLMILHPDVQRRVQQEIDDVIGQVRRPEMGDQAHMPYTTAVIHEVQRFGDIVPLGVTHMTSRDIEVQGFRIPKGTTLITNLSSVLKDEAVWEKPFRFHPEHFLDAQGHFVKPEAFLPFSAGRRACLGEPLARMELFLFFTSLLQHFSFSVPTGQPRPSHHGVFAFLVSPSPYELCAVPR
CYP2C19, sequence (P33261 whole entry): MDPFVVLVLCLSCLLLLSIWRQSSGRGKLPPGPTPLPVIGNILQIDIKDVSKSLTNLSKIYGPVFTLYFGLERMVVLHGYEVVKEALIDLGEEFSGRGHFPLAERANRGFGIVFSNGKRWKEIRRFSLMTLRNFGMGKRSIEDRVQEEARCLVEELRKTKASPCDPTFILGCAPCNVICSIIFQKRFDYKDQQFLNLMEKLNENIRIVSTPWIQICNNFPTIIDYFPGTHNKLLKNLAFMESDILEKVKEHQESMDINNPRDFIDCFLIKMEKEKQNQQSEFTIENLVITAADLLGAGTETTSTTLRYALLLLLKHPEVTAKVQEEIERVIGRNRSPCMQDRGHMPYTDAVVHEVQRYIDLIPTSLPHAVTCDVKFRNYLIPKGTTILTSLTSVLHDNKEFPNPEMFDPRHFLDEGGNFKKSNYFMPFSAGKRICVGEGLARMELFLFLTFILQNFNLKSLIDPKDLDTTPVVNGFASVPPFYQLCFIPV
CYP2C9, sequence (P11712 whole entry): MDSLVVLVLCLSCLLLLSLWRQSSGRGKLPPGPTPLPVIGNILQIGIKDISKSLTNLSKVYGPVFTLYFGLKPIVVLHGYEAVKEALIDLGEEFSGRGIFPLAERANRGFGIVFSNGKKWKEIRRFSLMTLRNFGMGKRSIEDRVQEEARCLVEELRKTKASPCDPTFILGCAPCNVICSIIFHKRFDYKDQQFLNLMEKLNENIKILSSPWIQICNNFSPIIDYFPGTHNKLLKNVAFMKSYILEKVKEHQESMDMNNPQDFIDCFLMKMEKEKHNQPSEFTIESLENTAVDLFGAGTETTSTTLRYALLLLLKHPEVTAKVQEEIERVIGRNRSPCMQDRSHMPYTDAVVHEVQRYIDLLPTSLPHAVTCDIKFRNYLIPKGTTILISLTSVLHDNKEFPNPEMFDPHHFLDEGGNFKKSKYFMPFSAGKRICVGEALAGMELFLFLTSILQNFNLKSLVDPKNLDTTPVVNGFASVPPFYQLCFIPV
CYP3A4, sequence (P08684 whole entry): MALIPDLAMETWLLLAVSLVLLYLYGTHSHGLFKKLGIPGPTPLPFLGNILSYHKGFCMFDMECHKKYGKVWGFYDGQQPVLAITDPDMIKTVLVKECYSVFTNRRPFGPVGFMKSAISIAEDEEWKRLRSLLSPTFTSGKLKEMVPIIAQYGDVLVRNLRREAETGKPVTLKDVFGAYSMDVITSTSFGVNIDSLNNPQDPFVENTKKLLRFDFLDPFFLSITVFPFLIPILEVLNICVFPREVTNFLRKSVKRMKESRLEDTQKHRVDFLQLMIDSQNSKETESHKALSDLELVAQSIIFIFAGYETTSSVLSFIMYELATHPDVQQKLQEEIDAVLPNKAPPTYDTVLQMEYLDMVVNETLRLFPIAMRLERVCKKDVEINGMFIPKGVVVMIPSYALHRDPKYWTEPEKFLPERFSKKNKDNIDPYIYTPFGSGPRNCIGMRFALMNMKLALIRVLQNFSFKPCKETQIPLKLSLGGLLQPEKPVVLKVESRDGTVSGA

remaining at 0.5 h, 1 μM [1] [%]	remaining at 0.5 h, 1 μM [2] [%]	CYP inhibition (% of control activity) CYP1A2 (CYP1A2)	CYP inhibition (% of control activity) CYP2C19 (CYP2C19)	CYP inhibition (% of control activity) CYP2C9 (CYP2C9)	CYP inhibition (% of control activity) CYP2D6 (CYP2D6)	CYP inhibition (% of control activity) CYP3A4 (CYP3A4)	remaining at 0.5 h, 1 μM (in vitro [3]) [%]	remaining at 2 h, 1 μM (in vitro [3]) [%]	remaining at 0.5 h, 1 μM (in vitro [4]) [%]	remaining at 2 h, 1 μM (in vitro [4]) [%]	remaining at 0.5 h, 1 μM (in vitro [5]) [%]	Molecule	AMPK phosphorylation activity (fold change) (AMPK phosphorylation)	also measured
–	–	–	–	–	–	–	–	–	–	–	–	NCC(=O)NC(CC(N)=O)C(=O)NC(Cc1ccc(O)cc1)C(=O)NC(Cc1ccc(O)cc1)C(=O)NC(Cc1ccccc1)C(=O)O (stereo not drawn) [DS-9, NH2-GNYYF-OH] (H-GNYYF-OH; configuration not given here)	1.6	–
–	–	–	–	–	–	–	–	–	–	–	–	CC(C)CC(NC(=O)CN)C(=O)NC(Cc1c[nH]c2ccccc12)C(=O)NC(Cc1ccc(O)cc1)C(=O)NC(Cc1ccccc1)C(N)=O (stereo not drawn) [DS-17, NH2-GLWYF-NH2] (H-GLWYF-NH2; configuration not given here)	1.2	AMPK phosphorylation activity compared to APN5 (in words) (AMPK phosphorylation): significant effect of increasing AMPK phosphorylation activity; AMPK phosphorylation activity after knockdown of the adiponectin receptor 1 (adiponectin receptor 1): decreased the AMPK phosphorylation activity after knockdown of the adiponectin receptor 1
–	–	–	–	–	–	–	–	–	–	–	–	CCC(C)C(NC(=O)CN)C(=O)NC(Cc1c[nH]c2ccccc12)C(=O)NC(Cc1ccc(O)cc1)C(=O)NC(Cc1ccccc1)C(N)=O (stereo not drawn) [DS-18, NH2-GIWYF-NH2] (H-GIWYF-NH2; configuration not given here)	1.2	AMPK phosphorylation activity compared to APN5 (in words) (AMPK phosphorylation): significant effect of increasing AMPK phosphorylation activity; AMPK phosphorylation activity after knockdown of the adiponectin receptor 1 (adiponectin receptor 1): decreased the AMPK phosphorylation activity after knockdown of the adiponectin receptor 1
–	–	–	–	–	–	–	–	–	–	–	–	NC(CC(=O)O)C(=O)NC(Cc1ccc(O)cc1)C(=O)NC(Cc1ccc(O)cc1)C(=O)NC(Cc1ccccc1)C(=O)O (stereo not drawn) [DS-27, NH2-DYYF-OH] (H-DYYF-OH; configuration not given here)	1.3	solubility at 24 h (physchem): 300 µg/mL (≈ 495 µM)
–	–	–	–	–	–	–	–	–	–	–	–	NC(=O)C(Cc1ccccc1)NC(=O)C(Cc1ccc(O)cc1)NC(=O)C(Cc1ccc(O)cc1)NC(=O)C(N)CC(=O)O (stereo not drawn) [DS-29, NH2-DYYF-NH2] (H-DYYF-NH2; configuration not given here)	1.2	solubility at 24 h (physchem): 300 µg/mL (≈ 495 µM)
95.8	99.2	77.7 % of control activity	4.1 % of control activity	93.6 % of control activity	97.4 % of control activity	>100 % of control activity	2.9	< 1	99.4	89.4	> 100	NCCCCC(NC(=O)C(Cc1ccc(O)cc1)NC(=O)C(Cc1ccc(O)cc1)NC(=O)C(CC(=O)O)NC(=O)CN)C(N)=O (stereo not drawn) [DS-35, NH2-GDYYK-NH2] (H-GDYYK-NH2; configuration not given here)	–	–
41.1	10.6	80.5 % of control activity	73.5 % of control activity	100.0 % of control activity	91.6 % of control activity	9.2 % of control activity	2.8	< 1	70.9	29.4	53.9	CC(C)CC(NC(=O)CN)C(=O)N(C)C(Cc1ccc(O)cc1)C(=O)NC(Cc1ccc(O)cc1)C(=O)NC(Cc1ccccc1)C(N)=O (stereo not drawn) [DS-56, NH2-GLY(N-Me)YF-NH2]	–	–
65.7	78	82.7 % of control activity	85.1 % of control activity	96.5 % of control activity	85.9 % of control activity	80.5 % of control activity	94.7	75.2	> 100	89.3	71.6	CC(C)CC1NC(=O)C(N)CC/C=C\CC(C(N)=O)NC(=O)C(Cc2ccc(O)cc2)NC(=O)C(Cc2ccc(O)cc2)NC1=O (stereo not drawn) [DS-73] (H-[ξhAlg]LYY[AllylGly]-NH2; staple (Z) 1-5; configuration not given here)	–	solubility at 24 h (physchem): 315 µg/mL (≈ 495 µM)
–	–	–	–	–	–	–	–	–	–	–	–	CCOC(=O)[C@H](CCc1ccccc1)N[C@@H](C)C(=O)N1CCC[C@H]1C(=O)O [Enalapril]	–	Plasma stability (% remaining) Rat, 30 m [6]: 27.9 % remaining; Plasma stability (% remaining) Rat, 120 m [6]: <1 % remaining; Plasma stability (% remaining) Human, 30 m ([7]; 1 μM, 30 m): >100 % remaining; Plasma stability (% remaining) Human, 120 m ([7]; 1 μM, 120 m): 197.4 % remaining
–	–	97.2 % of control activity	>100 % of control activity	>100 % of control activity	–	–	–	–	–	–	–	CC(=O)N1CCN(c2ccc(OCC3COC(Cn4ccnc4)(c4ccc(Cl)cc4Cl)O3)cc2)CC1 (stereo not drawn) [Ketoconazole, reference compound]	–	–
–	–	–	–	–	–	–	–	–	–	–	–	CCN(CC)CCOC(=O)c1ccc(N)cc1 [Procaine]	–	Plasma stability (% remaining) Rat, 30 m [6]: 90.3 % remaining; Plasma stability (% remaining) Rat, 120 m [6]: 57.4 % remaining; Plasma stability (% remaining) Human, 30 m column, marked (5 min) ([7]; cell marked (5 min)): 2.8 % remaining; Plasma stability (% remaining) Human, 120 m column, marked (5 min) ([7]; cell marked (5 min)): <1 % remaining
78.2	83.6	95.1 % of control activity	100 % of control activity	>100 % of control activity	>100 % of control activity	>100 % of control activity	39.8	3.3	> 100	96	93.9	Ac-GDYYF-NH2 [DS-8, AcNH-GDYYF-NH2]	–	–
66.4	95.9	83.2 % of control activity	80.9 % of control activity	97.3 % of control activity	85.5 % of control activity	90.9 % of control activity	1.4	< 1	> 100	94.1	62.5	H-GDYYF-OH [DS-5, NH2-GDYYF-OH]	–	solubility kinetic at 24 h (physchem): 328 µg/mL
